One compound from ChEMBL document CHEMBL5532636 (Eur J Med Chem, 2023) can be followed below.

For the test, the system named is SARS-CoV-2. The experiment in a line: Antiviral activity against SARS-CoV-2 Omicron BA.5 variant infected in African green monkey Vero E6 cells assessed as inhibition in viral replication at 25 ug/ml preincubated with cell culture for 1 hr and further infected with virus for 1 hr followed by removal of virus particles and subsequent replacement of medium containing compound measured for 72 hrs post-infection by RT-PCR analysis relative to control. As to conditions: Severe acute respiratory syndrome coronavirus 2, Omicron BA.5, Vero C1008, time 73 hrs. It counts as functional.

Broadly, the inhibition is the relative decrease from the control value, in per cent. `O=c1cc(-c2ccccc2)oc2cc(O)c(O)c(O)c12` [BAICALEIN]: the inhibition at 25 µg/mL is more than 50%.
